Patent US9789096B2, “Methods and compositions for selective and targeted cancer therapy” (Board of Regents of the University of Texas System, priority 2013, dated 2017)

Test system: HCC44
Test: Cell viability dose-response, HCC44
Assay type: cell-based, human
Settings: Homo sapiens, HCC44, 12-point dose-response starting at 50 micromolar, 3-fold increments, in duplicate; read-out: toxicity data, HCC44
Procedure: (§1) FIG. 6A. […] Cell viability is plotted vs. compound concentration. Compound was added to cells plated at 15% confluence in 96-well plates in RPMI-1640 media supplemented with 5% Fetal Bovine Serum and 2 mM L-Glutamine. After 4 days of incubation, ATP levels were measured using Cell Titer Glo (Promega). Data are presented as the average of 2 replicates ±SEM.
(§2) Selectivity may be measured by the half maximal inhibitory concentration (IC50), which, as used herein, is a measure of the effectiveness of a compound in killing cells. This quantitative measure indicates how much of a particular compound is needed to kill a particular cell population by half (e.g., as indicated by the amount of ATP). […] The IC50 can be determined by constructing a dose-response curve. The lower the IC50, the higher the potency, and the greater the difference between IC50 values for different cell lines (e.g., sensitive lines vs. insensitive lines, and sensitive lines vs. normal lines) the greater the selectivity. […]
(§3) With this information, we synthesized and tested a series of small molecules derived in conception from the oxalamide and chromone scaffold including N-acyl ureas, as shown in Tables 6-8. Each compound was tested in a 12-point dose-response study starting at 50 micromolar and decreasing in 3-fold increments to sub-nanomolar concentrations, in duplicate. Additionally, one or more additional cell line was tested in the same way.

Compound	IC50 [nM]
COc1ccc(CCNC(=O)NC(=O)c2ccc(C(=O)NC3CCCC3)cc2)cc1 [SW208454-1-A]	≥ 49500
COc1ccc(CCNC(=O)NC(=O)c2ccc(C(=O)N(C)C)cc2)cc1 [SW208455-1-A]	≥ 49500
COc1ccc(CCNC(=O)NC(=O)c2ccc(Oc3ccccc3)cc2)cc1 [SW208456-1-A]	22
COc1ccc(CCNC(=O)NC(=O)c2ccc(OCc3ccccc3)cc2)cc1 [SW208457-1-A]	23
COc1ccc(CCNC(=O)NC(=O)c2ccc(COc3ccccc3)cc2)cc1 [SW208458-1-A]	8
O=C(NCCc1ccc(O)cc1)NC(=O)c1ccc(C(=O)c2ccccc2)cc1 [SW208459-1-A]	73
COc1ccc(CCNC(=O)NC(=O)c2ccc(C(O)c3ccccc3)cc2)cc1 (stereo not shown) [SW208460-1-A]	84
COc1ccc(CCN(C)C(=O)NC(=O)c2ccc(C(=O)c3ccccc3)cc2)cc1 [SW208461-1-A]	≥ 49500
COc1ccc(CCCNC(=O)c2ccc(Cl)cc2)cc1 [SW208462-1-A]	≥ 49500
COc1ccc(CCNC(=O)c2ccc(Cl)cc2)cc1 [SW208463-1-A]	≥ 49500
COc1ccc(CNC(=O)c2ccc(Cl)cc2)cc1 [SW208464-1-A]	≥ 49500
COc1ccc(C(=O)Nc2ccc(C(=O)c3ccccc3)cc2)cc1 [SW208465-1-A]	≥ 49500
COc1ccc(CCC(=O)Nc2ccc(C(=O)c3ccccc3)cc2)cc1 [SW208466-1-A]	≥ 49500
COc1ccc(CCCC(=O)Nc2ccc(C(=O)c3ccccc3)cc2)cc1 [SW208470-1-A]	34800
COc1ccc(CCCCC(=O)Nc2ccc(C(=O)c3ccccc3)cc2)cc1 [SW208480-1-A]	1410
O=C(NCCc1ccc(O)cc1)NC(=O)c1ccc(COc2ccccc2)cc1 [SW208522-1-A]	10
O=C(NCCc1ccc(O)cc1)NC(=O)c1ccc(Oc2ccccc2)cc1 [SW208523-1-A]	20
O=C(NCCc1ccc(O)cc1)NC(=O)c1ccc(OCc2ccccc2)cc1 [SW208524-1-A]	10
COc1ccc(CCNC(=O)NC(=O)c2ccc(Nc3ccccc3)cc2)cc1 [SW208561-1-A]	30
O=C(NCCc1ccc(O)cc1)NC(=O)c1ccc(Nc2ccccc2)cc1 [SW208562-1-A]	12200
COc1ccc(CCNC(=O)NC(=O)c2ccc(C(Cl)c3ccccc3)cc2)cc1 (stereo not shown) [SW208563-1-A]	30
COc1ccc(CCNC(=O)NC(=O)c2ccc(C(N)c3ccccc3)cc2)cc1 (stereo not shown) [SW208564-1-A]	60
COc1ccc(CCNC(=O)NC(=O)c2ccc(O)cc2)cc1 [SW208565-1-A]	2750

Test system: H2122
Test: Cell viability dose-response, H2122
Assay type: cell-based, human
Settings: Homo sapiens, NCI-H2122, 12-point dose-response starting at 50 micromolar, 3-fold increments, in duplicate; read-out: toxicity data, H2122
Procedure, shortened: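 Viability read as total ATP (Cell Titer Glo) following 4 days' compound exposure, with IC50 derived from dose-response curves. Duplicate 12-point series, top concentration 50 micromolar with 3-fold steps, on cells seeded at 15% confluence in RPMI-1640, 5% FBS, 2 mM L-glutamine.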

Compound	IC50 [nM]
COc1ccc(CCNC(=O)NC(=O)c2ccc(C(=O)NC3CCCC3)cc2)cc1 [SW208454-1-A]	939
COc1ccc(CCNC(=O)NC(=O)c2ccc(C(=O)N(C)C)cc2)cc1 [SW208455-1-A]	≥ 49500
COc1ccc(CCNC(=O)NC(=O)c2ccc(Oc3ccccc3)cc2)cc1 [SW208456-1-A]	31
COc1ccc(CCNC(=O)NC(=O)c2ccc(OCc3ccccc3)cc2)cc1 [SW208457-1-A]	31
COc1ccc(CCNC(=O)NC(=O)c2ccc(COc3ccccc3)cc2)cc1 [SW208458-1-A]	10
O=C(NCCc1ccc(O)cc1)NC(=O)c1ccc(C(=O)c2ccccc2)cc1 [SW208459-1-A]	97
COc1ccc(CCNC(=O)NC(=O)c2ccc(C(O)c3ccccc3)cc2)cc1 (stereo not shown) [SW208460-1-A]	97
COc1ccc(CCN(C)C(=O)NC(=O)c2ccc(C(=O)c3ccccc3)cc2)cc1 [SW208461-1-A]	8670
COc1ccc(CCCNC(=O)c2ccc(Cl)cc2)cc1 [SW208462-1-A]	≥ 49500
COc1ccc(CCNC(=O)c2ccc(Cl)cc2)cc1 [SW208463-1-A]	≥ 49500
COc1ccc(CNC(=O)c2ccc(Cl)cc2)cc1 [SW208464-1-A]	≥ 49500
COc1ccc(CCC(=O)Nc2ccc(C(=O)c3ccccc3)cc2)cc1 [SW208466-1-A]	≥ 49500
COc1ccc(CCCC(=O)Nc2ccc(C(=O)c3ccccc3)cc2)cc1 [SW208470-1-A]	≥ 49500
COc1ccc(CCCCC(=O)Nc2ccc(C(=O)c3ccccc3)cc2)cc1 [SW208480-1-A]	2510
O=C(NCCc1ccc(O)cc1)NC(=O)c1ccc(COc2ccccc2)cc1 [SW208522-1-A]	10
O=C(NCCc1ccc(O)cc1)NC(=O)c1ccc(Oc2ccccc2)cc1 [SW208523-1-A]	20
O=C(NCCc1ccc(O)cc1)NC(=O)c1ccc(OCc2ccccc2)cc1 [SW208524-1-A]	20
COc1ccc(CCNC(=O)NC(=O)c2ccc(Nc3ccccc3)cc2)cc1 [SW208561-1-A]	80
O=C(NCCc1ccc(O)cc1)NC(=O)c1ccc(Nc2ccccc2)cc1 [SW208562-1-A]	90
COc1ccc(CCNC(=O)NC(=O)c2ccc(C(Cl)c3ccccc3)cc2)cc1 (stereo not shown) [SW208563-1-A]	60
COc1ccc(CCNC(=O)NC(=O)c2ccc(C(N)c3ccccc3)cc2)cc1 (stereo not shown) [SW208564-1-A]	320
COc1ccc(CCNC(=O)NC(=O)c2ccc(O)cc2)cc1 [SW208565-1-A]	18000

Same assay, conditions: Homo sapiens, NCI-H2122, Table 9, competitor; read-out: IC50 to H2122 cells

Compound	IC50 [nM]
COc1ccc(CCNC(=O)NC(=O)c2ccc(C(=O)N(C)C)cc2)cc1 [SW208455-1-A]	800
COc1ccc(CCNC(=O)NC(=O)c2ccc(COc3ccccc3)cc2)cc1 [SW208458-1-A]	4.25
O=C(NCCc1ccc(O)cc1)NC(=O)c1ccc(C(=O)c2ccccc2)cc1 [SW208459-1-A]	37.7
COc1ccc(CCNC(=O)NC(=O)c2ccc(C(O)c3ccccc3)cc2)cc1 (stereo not shown) [SW208460-1-A]	45.6
O=C(NCCc1ccc(O)cc1)NC(=O)c1ccc(COc2ccccc2)cc1 [SW208522-1-A]	47.7
COc1ccc(CCNC(=O)NC(=O)c2ccc(Nc3ccccc3)cc2)cc1 [SW208561-1-A]	76.3
O=C(NCCc1ccc(O)cc1)NC(=O)c1ccc(Nc2ccccc2)cc1 [SW208562-1-A]	73.7

Same assay, conditions: Homo sapiens, NCI-H2122, read-out: toxicity data, H2122

Compound	IC50 [nM]
COc1ccc(C(=O)Nc2ccc(C(=O)c3ccccc3)cc2)cc1 [SW208465-1-A]	≥ 49500

Test system: H2009
Test: Cell viability dose-response, H2009
Assay type: cell-based, human
Settings: Homo sapiens, NCI-H2009; 12-point dose-response starting at 50 micromolar, 3-fold increments, in duplicate; read-out: toxicity data, H2009
Procedure: as §1, §2, §3

Compound	IC50 [nM]
COc1ccc(CCNC(=O)NC(=O)c2ccc(C(=O)NC3CCCC3)cc2)cc1 [SW208454-1-A]	≥ 49500
COc1ccc(CCNC(=O)NC(=O)c2ccc(C(=O)N(C)C)cc2)cc1 [SW208455-1-A]	16500
COc1ccc(CCNC(=O)NC(=O)c2ccc(Oc3ccccc3)cc2)cc1 [SW208456-1-A]	≥ 49500
COc1ccc(CCNC(=O)NC(=O)c2ccc(OCc3ccccc3)cc2)cc1 [SW208457-1-A]	≥ 49500
COc1ccc(CCNC(=O)NC(=O)c2ccc(COc3ccccc3)cc2)cc1 [SW208458-1-A]	99
O=C(NCCc1ccc(O)cc1)NC(=O)c1ccc(C(=O)c2ccccc2)cc1 [SW208459-1-A]	299
COc1ccc(CCNC(=O)NC(=O)c2ccc(C(O)c3ccccc3)cc2)cc1 (stereo not shown) [SW208460-1-A]	≥ 49500
COc1ccc(CCN(C)C(=O)NC(=O)c2ccc(C(=O)c3ccccc3)cc2)cc1 [SW208461-1-A]	≥ 49500
COc1ccc(CCCNC(=O)c2ccc(Cl)cc2)cc1 [SW208462-1-A]	≥ 49500
COc1ccc(CCNC(=O)c2ccc(Cl)cc2)cc1 [SW208463-1-A]	≥ 49500
COc1ccc(CNC(=O)c2ccc(Cl)cc2)cc1 [SW208464-1-A]	≥ 49500
COc1ccc(C(=O)Nc2ccc(C(=O)c3ccccc3)cc2)cc1 [SW208465-1-A]	≥ 49500
COc1ccc(CCC(=O)Nc2ccc(C(=O)c3ccccc3)cc2)cc1 [SW208466-1-A]	≥ 49500
COc1ccc(CCCC(=O)Nc2ccc(C(=O)c3ccccc3)cc2)cc1 [SW208470-1-A]	34400
COc1ccc(CCCCC(=O)Nc2ccc(C(=O)c3ccccc3)cc2)cc1 [SW208480-1-A]	≥ 49500
O=C(NCCc1ccc(O)cc1)NC(=O)c1ccc(COc2ccccc2)cc1 [SW208522-1-A]	10
O=C(NCCc1ccc(O)cc1)NC(=O)c1ccc(Oc2ccccc2)cc1 [SW208523-1-A]	20
O=C(NCCc1ccc(O)cc1)NC(=O)c1ccc(OCc2ccccc2)cc1 [SW208524-1-A]	10
COc1ccc(CCNC(=O)NC(=O)c2ccc(Nc3ccccc3)cc2)cc1 [SW208561-1-A]	880
O=C(NCCc1ccc(O)cc1)NC(=O)c1ccc(Nc2ccccc2)cc1 [SW208562-1-A]	10
COc1ccc(CCNC(=O)NC(=O)c2ccc(C(Cl)c3ccccc3)cc2)cc1 (stereo not shown) [SW208563-1-A]	990
COc1ccc(CCNC(=O)NC(=O)c2ccc(C(N)c3ccccc3)cc2)cc1 (stereo not shown) [SW208564-1-A]	5620
COc1ccc(CCNC(=O)NC(=O)c2ccc(O)cc2)cc1 [SW208565-1-A]	5900
